Assay results published in US11427553B2, “Dihydrooxadiazinones” (Bayer Aktiengesellschaft, priority 2017, dated 2022).

What was measured:
HeLa cells = test: Assay 1 cell proliferation measurement (CTG, 72 h), HeLa; assay type: cell-based, human; conditions: Homo sapiens, HeLa; Assay 1, 72 h, Cell Titer Glo; read-out: HeLa IC50 [nM] (Cervical cancer)
In short: (§1)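 CTG luminescence readout after 72 h compound exposure at 37 °C; 10-point 2.5-fold dilutions from 100 nM max final; DMSO 0.3% vehicle. IC50 from 4-parameter fit, normalised to 0 h plate (max inhibition) and DMSO (min inhibition).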

SK-MEL-3 cells = test: Assay 1 cell proliferation measurement (CTG, 72 h), SK-MEL-3; assay type: cell-based, human; conditions: Homo sapiens, SK-MEL3; Assay 1, 72 h, Cell Titer Glo; read-out: SK-MEL-3 IC50 [nM] (melanoma)
In short: as §1

human full length PDE3A = human full length PDE3A (Homo sapiens (Human), UniProt Q14432); test: Assay 4 PDE3A enzyme inhibition (3H-cAMP SPA); assay type: biochemical; conditions: Sf9 cell extract
human full length PDE3A, sequence (Q14432 whole entry): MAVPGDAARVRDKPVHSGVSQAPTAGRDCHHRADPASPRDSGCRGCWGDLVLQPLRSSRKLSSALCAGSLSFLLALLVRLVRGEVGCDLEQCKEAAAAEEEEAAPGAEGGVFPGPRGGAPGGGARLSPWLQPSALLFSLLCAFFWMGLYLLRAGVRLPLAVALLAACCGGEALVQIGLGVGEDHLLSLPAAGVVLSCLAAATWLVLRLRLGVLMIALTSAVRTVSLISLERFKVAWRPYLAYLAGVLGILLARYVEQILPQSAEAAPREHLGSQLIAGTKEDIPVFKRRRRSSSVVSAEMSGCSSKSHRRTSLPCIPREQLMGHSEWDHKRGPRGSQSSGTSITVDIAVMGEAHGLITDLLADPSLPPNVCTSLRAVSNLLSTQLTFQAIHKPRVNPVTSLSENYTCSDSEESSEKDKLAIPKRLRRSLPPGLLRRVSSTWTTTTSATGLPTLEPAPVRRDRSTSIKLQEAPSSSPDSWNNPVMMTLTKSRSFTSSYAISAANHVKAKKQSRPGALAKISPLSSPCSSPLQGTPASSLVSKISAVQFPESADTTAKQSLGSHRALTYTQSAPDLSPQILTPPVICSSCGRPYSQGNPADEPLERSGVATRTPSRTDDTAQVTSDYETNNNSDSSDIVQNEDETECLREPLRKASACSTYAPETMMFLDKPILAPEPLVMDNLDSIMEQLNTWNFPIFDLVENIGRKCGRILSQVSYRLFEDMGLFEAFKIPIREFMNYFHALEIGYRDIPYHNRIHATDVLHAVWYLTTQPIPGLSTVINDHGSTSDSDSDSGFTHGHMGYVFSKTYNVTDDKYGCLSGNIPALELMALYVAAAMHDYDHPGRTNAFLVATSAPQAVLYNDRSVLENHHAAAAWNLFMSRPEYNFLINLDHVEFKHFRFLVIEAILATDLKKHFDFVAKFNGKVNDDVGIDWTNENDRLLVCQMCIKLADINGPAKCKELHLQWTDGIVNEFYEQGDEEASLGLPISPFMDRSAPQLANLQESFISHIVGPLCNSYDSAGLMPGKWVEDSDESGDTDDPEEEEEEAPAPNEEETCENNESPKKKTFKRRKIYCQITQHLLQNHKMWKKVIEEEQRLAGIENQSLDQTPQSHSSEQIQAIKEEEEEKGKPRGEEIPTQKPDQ
In short: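 Enzyme: Sf9 extract with overexpressed full-length PDE3A; substrate [8-3H]cAMP, 0.025 μCi/well; 60 min, room temperature, Tris/HCl pH 7.5 buffer with MgCl2, EDTA, BSA.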

human full length PDE3B = human full length PDE3B (Homo sapiens (Human), UniProt Q13370); test: Assay 5 PDE3B enzyme inhibition (3H-cAMP SPA); assay type: biochemical; conditions: Sf9 cell extract
human full length PDE3B, sequence (Q13370 whole entry): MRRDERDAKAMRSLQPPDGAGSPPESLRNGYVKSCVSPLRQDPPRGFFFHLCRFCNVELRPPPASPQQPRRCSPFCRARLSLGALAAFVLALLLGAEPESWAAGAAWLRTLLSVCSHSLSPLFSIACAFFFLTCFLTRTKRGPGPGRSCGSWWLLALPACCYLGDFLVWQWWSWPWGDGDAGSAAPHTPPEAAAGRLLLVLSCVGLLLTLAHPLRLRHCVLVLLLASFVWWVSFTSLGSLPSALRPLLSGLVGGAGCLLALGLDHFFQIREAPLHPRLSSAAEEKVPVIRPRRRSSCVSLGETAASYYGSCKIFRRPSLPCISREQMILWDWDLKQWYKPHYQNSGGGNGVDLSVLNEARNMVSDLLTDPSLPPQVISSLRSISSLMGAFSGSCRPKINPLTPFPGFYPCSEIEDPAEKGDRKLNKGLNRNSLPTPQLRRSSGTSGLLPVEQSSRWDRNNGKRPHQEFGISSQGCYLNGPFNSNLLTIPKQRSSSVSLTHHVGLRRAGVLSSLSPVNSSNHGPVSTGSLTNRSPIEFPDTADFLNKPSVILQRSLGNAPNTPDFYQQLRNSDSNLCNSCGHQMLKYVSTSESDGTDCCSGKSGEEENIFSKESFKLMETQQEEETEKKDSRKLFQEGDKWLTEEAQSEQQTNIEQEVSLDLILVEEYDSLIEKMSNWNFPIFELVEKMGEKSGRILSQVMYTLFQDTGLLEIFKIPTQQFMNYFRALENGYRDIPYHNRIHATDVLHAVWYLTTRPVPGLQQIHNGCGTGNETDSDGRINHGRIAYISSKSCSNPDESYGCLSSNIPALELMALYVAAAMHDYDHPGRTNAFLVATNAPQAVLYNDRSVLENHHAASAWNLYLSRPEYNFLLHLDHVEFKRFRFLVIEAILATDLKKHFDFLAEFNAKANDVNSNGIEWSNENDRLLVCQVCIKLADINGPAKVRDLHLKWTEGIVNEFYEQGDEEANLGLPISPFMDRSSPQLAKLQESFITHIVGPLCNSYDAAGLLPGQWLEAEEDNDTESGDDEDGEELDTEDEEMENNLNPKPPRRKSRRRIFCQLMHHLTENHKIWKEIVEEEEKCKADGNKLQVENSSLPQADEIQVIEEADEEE
In short: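 Hydrolysis of tritiated cAMP by Sf9-expressed full-length human PDE3B proceeded 60 min at room temperature in Tris buffer pH 7.5 containing Mg2+, EDTA and BSA, with enzyme dilution keeping substrate consumption below 70%. IC50 derived from percent activity versus log compound concentration.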

Row | Compound | IC50 (HeLa cells) [nM] | IC50 (SK-MEL-3 cells) [nM] | IC50 (human full length PDE3A) [nM] | IC50 (human full length PDE3B) [nM]
1 | COc1ccc(-c2ccc(C3=NNC(=O)O[C@H]3C)cc2C(F)(F)F)cn1 [Example 187, (6S)-5-[4-(6-Methoxypyridin-3-yl)-3-(trifluoromethyl)phenyl]-6-methyl-3,6-dihydro-2H-1,3,4-oxadiazin-2-one] | 23 | 40 | 81 | 100
2 | COc1ccc(-c2ccc(C3=NNC(=O)O[C@H]3C)cc2C(F)(F)F)cc1 [Example 188, (6S)-5-[4′-Methoxy-2-(trifluoromethyl)[1,1′-biphenyl]-4-yl]-6-methyl-3,6-dihydro-2H-1,3,4-oxadiazin-2-one] | 22 | 38 | 90 | 100
3 | Cc1ccc(-c2ccc(C3=NNC(=O)O[C@H]3C)cc2C(F)(F)F)cc1 [Example 189, (6S)-6-Methyl-5-[4′-methyl-2-(trifluoromethyl)[1,1′-biphenyl]-4-yl]-3,6-dihydro-2H-1,3,4-oxadiazin-2-one] | 6 | 12 | 190 | 200
4 | O=C1NN=C(c2cc(F)c(-c3cnn(C(F)F)c3)c(C(F)(F)F)c2)CO1 [Example 193, 5-{4-[1-(Difluoromethyl)-1H-pyrazol-4-yl]-3-fluoro-5-(trifluoromethyl)phenyl}-3,6-dihydro-2H-1,3,4-oxadiazin-2-one] | 5 | 9 | 195 | 215
5 | O=C1NN=C(c2ccc(CN3CCOCC3)c(C(F)(F)F)c2)CO1 [Example 197, 5-{4-[(Morpholin-4-yl)methyl]-3-(trifluoromethyl)phenyl}-3,6-dihydro-2H-1,3,4-oxadiazin-2-one] | 5 | 10 | 650 | 803
6 | Cc1ccc(-c2ccc(C3=NNC(=O)OC3)cc2C(F)F)cn1 [Example 200, 5-[3-(Difluoromethyl)-4-(6-methylpyridin-3-yl)phenyl]-3,6-dihydro-2H-1,3,4-oxadiazin-2-one] | 10 | 22 | 34 | 66

Other lines, results leading:

Row | IC50 (HeLa cells) [nM] | IC50 (SK-MEL-3 cells) [nM] | IC50 (human full length PDE3A) [nM] | IC50 (human full length PDE3B) [nM] | Compound
7 | 3 | 9 | 86 | 77 | O=C1NN=C(c2ccc(C3=CCCC3)c(C(F)F)c2)CO1 [Example 201, 5-[4-(Cyclopent-1-en-1-yl)-3-(difluoromethyl)phenyl]-3,6-dihydro-2H-1,3,4-oxadiazin-2-one]
8 | 5 | 12 | 76 | 63 | O=C1NN=C(c2ccc(-c3cn[nH]c3)c(C(F)F)c2)CO1 [Example 202, 5-(3-(difluoromethyl)-4-(1H-pyrazol-4-yl)phenyl)-3H-1,3,4-oxadiazin-2(6H)-one]
9 | 4 | 5 | 53 | 123 | O=C1NN=C(c2ccc(NC3CCOCC3)c(C(F)(F)F)c2)CO1 [Example 205, 5-{4-[(Oxan-4-yl)amino]-3-(trifluoromethyl)phenyl}-3,6-dihydro-2H-1,3,4-oxadiazin-2-one]
10 | 7 | 7 | 275 | 533 | O=C1NN=C(c2ccc(NC[C@H](O)C(F)(F)F)c(C(F)(F)F)c2)CO1 [Example 209, 5-[4-{[3,3,3-Trifluoro-(2S)-hydroxypropyl]amino}-3-(trifluoromethyl)phenyl]-3,6-dihydro-2H-1,3,4-oxadiazin-2-one]
11 | 6 | 8 | 140 | 363 | CC(C)(O)CNc1ccc(C2=NNC(=O)OC2)cc1C(F)(F)F [Example 210, 5-{4-[(2-Hydroxy-2-methylpropyl)amino]-3-(trifluoromethyl)phenyl}-3,6-dihydro-2H-1,3,4-oxadiazin-2-one]
12 | 2 | 2 | 29 | 54 | O=C1NN=C(c2ccc(N[C@H]3CC[C@H](O)CC3)c(C(F)(F)F)c2)CO1 [Example 211, (trans)-5-[4-{[4-Hydroxycyclohexyl]amino}-3-(trifluoromethyl)phenyl]-3,6-dihydro-2H-1,3,4-oxadiazin-2-one]
